This passage reports Activity results from ChEMBL document CHEMBL3044734, “Major secondary metabolites produced by two commercial Trichoderma strains active against different phytopathogens” (2006).

Type in all cases: functional
In assay [1] the test system is Gaeumannomyces tritici. In words: Antimicrobial activity against Gaeumannomyces graminis var. tritici assessed as colony diameter at 1 ug/plug after 3 days ( Rvb = 1.40+/- 0.8 cm).
Assay [2] concerns Gaeumannomyces tritici. Put plainly: Antimicrobial activity against Gaeumannomyces graminis var. tritici assessed as colony diameter at 0.1 ug/plug after 3 days ( Rvb = 1.40+/- 0.8 cm).
The subject of assay [3] is Rhizoctonia solani. Put plainly: Antimicrobial activity against Rhizoctonia solani assessed as colony diameter at 10 ug/plug after 3 days ( Rvb = 2.95 +/- 0.11 cm).
Assay [4] deals with Gaeumannomyces tritici. Put plainly: Antimicrobial activity against Gaeumannomyces graminis var. tritici assessed as colony diameter at 10 ug/plug after 3 days ( Rvb = 1.40+/- 0.8 cm).
Assay [5] relates to Globisporangium ultimum. In words: Antimicrobial activity against Pythium ultimum assessed as colony diameter at 1 ug/plug after 3 days ( Rvb = 8.50 cm).
For assay [6], the system named is Globisporangium ultimum. Put plainly: Antimicrobial activity against Pythium ultimum assessed as colony diameter at 100 ug/plug after 3 days ( Rvb = 8.50 cm).
Assay [7] concerns Rhizoctonia solani. In words: Antimicrobial activity against Rhizoctonia solani assessed as colony diameter at 1 ug/plug after 3 days ( Rvb = 2.95 +/- 0.11 cm).
The subject of assay [8] is Gaeumannomyces tritici. In words: Antimicrobial activity against Gaeumannomyces graminis var. tritici assessed as colony diameter at 100 ug/plug after 3 days ( Rvb = 1.40+/- 0.8 cm).
The subject of assay [9] is Globisporangium ultimum. Put plainly: Antimicrobial activity against Pythium ultimum assessed as colony diameter at 10 ug/plug after 3 days ( Rvb = 8.50 cm).
The test system of assay [10] is Globisporangium ultimum. In words: Antimicrobial activity against Pythium ultimum assessed as colony diameter at 0.01 ug/plug after 3 days ( Rvb = 8.50 cm).
Assay [11] relates to Rhizoctonia solani. Put plainly: Antimicrobial activity against Rhizoctonia solani assessed as colony diameter at 0.1 ug/plug after 3 days ( Rvb = 2.95 +/- 0.11 cm).
For assay [12], the system named is Rhizoctonia solani. In words: Antimicrobial activity against Rhizoctonia solani assessed as colony diameter at 100 ug/plug after 3 days ( Rvb = 2.95 +/- 0.11 cm).
For assay [13], the system named is Gaeumannomyces tritici. In words: Antimicrobial activity against Gaeumannomyces graminis var. tritici assessed as colony diameter at 0.01 ug/plug after 3 days ( Rvb = 1.40+/- 0.8 cm).
For assay [14], the system named is Gaeumannomyces tritici. In words: Antimicrobial activity against Gaeumannomyces graminis var. tritici assessed as colony diameter at 200 ug/plug after 3 days ( Rvb = 1.40+/- 0.8 cm).
Assay [15] concerns Rhizoctonia solani. Put plainly: Antimicrobial activity against Rhizoctonia solani assessed as colony diameter at 200 ug/plug after 3 days ( Rvb = 2.95 +/- 0.11 cm).
For assay [16], the system named is Globisporangium ultimum. Put plainly: Antimicrobial activity against Pythium ultimum assessed as colony diameter at 200 ug/plug after 3 days ( Rvb = 8.50 cm).
Assay [17] has as its system Rhizoctonia solani. Put plainly: Antimicrobial activity against Rhizoctonia solani assessed as colony diameter at 0.01 ug/plug after 3 days ( Rvb = 2.95 +/- 0.11 cm).
Assay [18] has as its system Globisporangium ultimum. In words: Antimicrobial activity against Pythium ultimum assessed as colony diameter at 0.1 ug/plug after 3 days ( Rvb = 8.50 cm).

Structures are written as SMILES.

In the case of `C/C=C/C=C/CC1=C(CC(C)O)C(=O)OC1` (stereo unspecified) [HARZIANOLIDE], the Activity in assay [1] is reported as 1.43 cm; in assay [2], 1.25 cm; in assay [3] it was 3.05 cm; in assay [4] it was 1.1 cm; in assay [5], 8.5 cm; in assay [6], 8.5 cm. For the same molecule, the Activity in [7] amounted to 2.5 cm; in assay [8], 1.25 cm; in [9], 8.5 cm; in [10], 8.5 cm; in assay [11], 2.83 cm; in [12], 2.7 cm. Besides, the Activity is listed as 1.05 cm in [13]; 0.7 cm in [14]; 2.35 cm in assay [15]; 7.6 cm in [16]; 2.8 cm in assay [17]; 8.5 cm in assay [18].

As for `C/C=C/C=C/C1=CC2=CC(=O)[C@](C)(OC(=O)[C@H](C)O)C(=O)C2=CO1` [T22AZAPHILONE], the Activity in assay [1] worked out at 0 cm; in [2], 1.13 cm; in assay [3], 0 cm; in assay [4], 0 cm; in [5] it was 8.3 cm; in assay [6] it was 0 cm. For the same molecule, the Activity in [7] amounted to 1.9 cm; in assay [8], 0 cm; in assay [9], 5.2 cm; in [10], 8.5 cm; in assay [11], 2.83 cm; in assay [12], 0 cm. Also, the Activity was 1.18 cm in assay [13], 2.9 cm in assay [17] and 8.5 cm in assay [18].

As for `C/C=C/C=C/CC1=C(CC(C)=O)C(=O)OC1` [T39BUTENOLIDE], the Activity in [1] is 1.1 cm; in assay [2] it was 1.13 cm; in [3], 2.13 cm; in assay [4] it was 1.23 cm; in assay [5], 8.5 cm; in assay [6], 8.05 cm. Moreover, the Activity in [7] was determined as 2.4 cm; in [8], 0 cm; in assay [9], 8.5 cm; in assay [10] it was 8.5 cm; in assay [11], 2.5 cm; in assay [12] it was 0 cm. Moreover, the Activity in assay [13] stood at 1.2 cm; in assay [14], 0 cm; in [15], 0 cm; in assay [16] it was 6.35 cm; in [17], 2.73 cm; in assay [18], 8.5 cm.

For the molecule `C/C=C/CC(C)C(=O)c1c(O)c(OC)c(OC)[nH]c1=O` (stereo unspecified) [HARZIANOPYRIDONE], the Activity in assay [1] is 0 cm; in [2] it was 0.7 cm; in assay [3], 0 cm; in [4] it was 0 cm; in assay [5] it was 8.5 cm; in assay [6], 7.9 cm. For the same molecule, the Activity in [7] turned out to be 1.2 cm; in [8], 0 cm; in [9] it was 8.5 cm; in assay [10], 8.5 cm; in assay [11] it was 2.53 cm; in [12] it was 0 cm. Moreover, the Activity was 0.98 cm in assay [13], 2.73 cm in assay [17] and 8.5 cm in assay [18].
